Data: the NIST ThermoML archive (doi:10.1016/j.jct.2017.11.002)
± gives the expanded uncertainty stated by the source.

Experiments:
[1] = molar enthalpy of vaporization or sublimation; settings: 298.15 K; Crystal; Static calorimetry
[2] = Crystal, Calculated from knudsen effusion weight loss

Row | molar enthalpy [1] | vapor or sublimation pressure ([2]; 394.16 K) | vapor or sublimation pressure ([2]; 396.13 K) | vapor or sublimation pressure ([2]; 398.11 K) | vapor or sublimation pressure ([2]; 400.15 K) | vapor or sublimation pressure ([2]; 402.1 K) | vapor or sublimation pressure ([2]; 404.1 K) | vapor or sublimation pressure ([2]; 406.15 K) | vapor or sublimation pressure ([2]; 408.13 K) | vapor or sublimation pressure ([2]; 410.11 K) | vapor or sublimation pressure ([2]; 412.16 K) | vapor or sublimation pressure ([2]; 414.11 K) | vapor or sublimation pressure ([2]; 416.12 K) | Structure (SMILES)
1 | 31.9 ± 1 kcal/mol | – | – | – | – | – | – | – | – | – | – | – | – | O=c1c2ccccc2[nH]c2ccccc12 [9(10H)-acridinone]
2 | 29.6 ± 0.693 kcal/mol | 0.0001465 ± 6e-05 kPa | 0.0001788 ± 6e-05 kPa | 0.0002123 ± 6.1e-05 kPa | 0.0002508 ± 6.1e-05 kPa | 0.0003035 ± 6.1e-05 kPa | 0.0003591 ± 6.1e-05 kPa | 0.0004322 ± 6.2e-05 kPa | 0.000516 ± 6.3e-05 kPa | 0.0005963 ± 6.4e-05 kPa | 0.0007321 ± 6.5e-05 kPa | 0.0008616 ± 6.7e-05 kPa | 0.00101 ± 9.3e-05 kPa | Cn1c2ccccc2c(=O)c2ccccc21 [N-methylacridone]
